Results published in US20170304450A1, “PARENTERAL COMPOSITIONS AND USES THEREOF” (CEVA SANTE ANIMALE, priority 2014, published 2017).
Where two headings read alike, the source gives them in different places.

How the values were obtained:
[1] = Tests of equivalence of bioavailability: plasma pharmacokinetic parameters after subcutaneous injection; type: in vivo, bovines; details: both sexes, bovine (cattle), sc
Procedure: 24 young male and female bovines aged 11 months and with an average weight of 220 kg are treated individually with 1 subcutaneous injection of 40 mg/kg of florfenicol (Nuflor 450®—Merck, 450 mg of florfenicol/mL). Blood samples are taken regularly during the 7 days following this injection. This is followed by a wash-out period of 20 days. The animals then receive a subcutaneous injection of 0.5 mg/kg meloxicam (Metacam®, Boehringer Ingelheim, 5 mg of meloxicam/mL). Blood samples are taken regularly during the 7 days following this injection. This is followed by a new wash-out period of 20 days. […] Blood samples are taken regularly during the 7 days following this injection. The blood samples obtained during this treatment campaign make it possible to evaluate the pharmacokinetic parameters (Cmax and AUC0-t) and a pharmacological parameter (useful life of the antibiotic) by conventional methods known by a person skilled in the art.

Histophilus somni [2] = assay: Useful life of the antibiotic (time plasma concentration is above MIC90); type: in vivo; details: time plasma florfenicol is above MIC90 0.2 μg/mL for Histophilus somni; bovines, subcutaneous
Procedure: (§1) Blood samples are taken regularly during the 7 days following this injection. This is followed by a wash-out period of 20 days. The animals then receive a subcutaneous injection of 0.5 mg/kg meloxicam (Metacam®, Boehringer Ingelheim, 5 mg of meloxicam/mL). Blood samples are taken regularly during the 7 days following this injection. This is followed by a new wash-out period of 20 days. […] Blood samples are taken regularly during the 7 days following this injection. […] The useful life of an antibiotic is the time (in hours) during which the plasma concentration of a given antibiotic is above its MIC90 for the 3 representative microbes Mannheimia haemolytica, Histophilus somni, Pasteurella multocida.

Mannheimia haemolytica [3] = assay: as above; type: in vivo; details: time plasma florfenicol is above MIC90 1 μg/mL for Mannheimia haemolytica; bovines, subcutaneous
Procedure: as §1

Pasteurella multocida [4] = assay: as above; type: in vivo; details: time plasma florfenicol is above MIC90 0.5 μg/mL for Pasteurella multocida; bovines, subcutaneous
Procedure: as §1

Mannheimia haemolytica [5] = details: Mannheimia haemolytica reference strain; cited from earlier work
Histophilus somni [6] = details: Histophilus somni reference strain; cited from earlier work
Pasteurella multocida [7] = details: Pasteurella multocida reference strain; cited from earlier work

Compound	AUC(0-t) ([1]; in vivo, 40 mg/kg) [µg·h/mL]	Cmax ([1]; in vivo, 40 mg/kg) [ng/mL]	Calculated antibiotic life (Histophilus somni [2]) [h]	Calculated antibiotic life (Mannheimia haemolytica [3]) [h]	Calculated antibiotic life (Pasteurella multocida [4]) [h]	reference MIC90 (Mannheimia haemolytica [5]) [µg/mL]	reference MIC90 (Histophilus somni [6]) [µg/mL]	reference MIC90 (Pasteurella multocida [7]) [µg/mL]	AUC(0-t) ([1]; plasma, 0.5 mg/kg, read-out: AUC0-t of meloxicam in plasma) [µg·h/mL]	Cmax ([1]; plasma, 0.5 mg/kg, read-out: Cmax of meloxicam in plasma) [ng/mL]
CS(=O)(=O)c1ccc([C@@H](O)[C@@H](CF)NC(=O)C(Cl)Cl)cc1 [Florfenicol, florfenicol]	196 ± 45	3500 ± 1040	167.78 ± 0.13	66.44 ± 20.65	132.03 ± 27.22	1	0.2	0.5	–	–
Cc1cnc(NC(=O)C2=C(O)c3ccccc3S(=O)(=O)N2C)s1 [Meloxicam, meloxicam]	–	–	–	–	–	–	–	–	40.6 ± 7.12	2240 ± 357
